# According to patent JP2005314435A, “循環器疾患治療剤および健康食品” (Individual, priority 2000, dated 2002):
# Legend:
# Format in all cases: in vivo
# [1] = test system: spontaneously hypertensive rat [自然発症高血圧ラット(SHR)]; experiment: Example 1: blood pressure lowering and body weight in spontaneously hypertensive rats (1% saline drinking water)
# [2] = test system: spontaneously stroke-developing rat [自然発症脳卒中ラット(SHR-SP)]; experiment: Example 2: blood pressure lowering, body weight and mortality in stroke-prone rats (1% saline drinking water); settings: for blood pressure (systolic) / body weight: 1.8% in feed
# [3] = test system: spontaneously stroke-developing rat [自然発症脳卒中ラット (SHR−SP)]; experiment: Example 3: blood pressure lowering and body weight in SHR-SP given 0.003% L-NAME drinking water
# [4] = test system: SHR-SP rat, neurological symptoms [SHR−SPに対する神経症状]; experiment: Example 2: delay of neurological symptom onset and life prolongation in SHR-SP (1% saline drinking water); settings: for mean number of days from onset to death / mean number of days to death / mean number of days to onset of neurological symptoms: 1.8% in feed
# [5] = test system: WKY rat (Wistar-Kyoto rat) [WKYラット(Wistar-Kyoto rat)]; experiment: Example 1: blood pressure and body weight in normotensive WKY rats (1% saline drinking water)
# [6] = test system: SHR-SP rat, neurological symptoms [SHR−SPに対する神経症状]; experiment: Example 3: delay of neurological symptom onset, life prolongation and brain microvessel protection in SHR-SP given 0.003% L-NAME
# [7] = FA 1.8% in feed until week 6, then normal feed, week 9
# [8] = FA 1.8% in feed until week 6, then normal feed, week 12
# [9] = FA 1.8% in feed, pre-value (week 0)
# [10] = FA 2.7% in feed until week 6, then normal feed, week 9
# [11] = FA 2.7% in feed until week 6, then normal feed, week 12
# [12] = FA 2.7% in feed, pre-value (week 0)
# [13] = WKY, FA 2.7% in feed until week 6, then normal feed, week 9
# [14] = WKY, FA 2.7% in feed until week 6, then normal feed, week 12
# [15] = WKY, FA 2.7% in feed, pre-value (week 0)
# [16] = FA 2.7% in feed, 8-week observation
# [17] = FA 2.7% in feed, n = 6, 8-week observation
# [18] = FA-Arg 1.8% in feed, pre-value (week 0)
# [19] = n = 7, listed as FA−Arg塩, L−アルギニン塩
# [20] = FA-Arg 1.8% in feed, 8-week observation
# [21] = FA-Arg 1.8% in feed, n = 7, 8-week observation
compound,measurement,setting,value
"COc1cc(C=CC(=O)O)ccc1O [FA, フェルラ酸]",deaths,"[1]; FA 1.8% group, at week 9-10 (after change to normal feed at week 6)",1 cases
same,blood pressure (systolic),[1]; [7],225.6 ±6.1 mmHg
same,body weight,[1]; [7],293.8 ± 5.0 g
same,blood pressure (systolic),[1]; [8],233.6 ± 6.0 mmHg
same,body weight,[1]; [8],307.0 ± 6.7 g
same,blood pressure (systolic),[1]; [9],128.5 ±2.2 mmHg
same,body weight,[1]; [9],135.5 ± 1.8 g
same,blood pressure (systolic),"[1]; FA 1.8% in feed, week 6",201.1 ±6.2 mmHg
same,body weight,"[1]; FA 1.8% in feed, week 6",264.8 ± 4.1 g
same,blood pressure (systolic),[1]; [10],211.8 ±3.1 mmHg
same,body weight,[1]; [10],292.1 ± 3.0 g
same,blood pressure (systolic),[1]; [11],217.7 ± 4.7 mmHg
same,body weight,[1]; [11],309.4 ± 3.1 g
same,blood pressure (systolic),[1]; [12],135.4 ±2.7 mmHg
same,body weight,[1]; [12],136.8 ± 1.5 g
same,blood pressure (systolic),"[1]; FA 2.7% in feed, week 6",192.0 ±2.5 mmHg
same,body weight,"[1]; FA 2.7% in feed, week 6",239.5 ± 3.4 g
same,suppression of body weight (in words),[1]; FA groups,体重の有意な抑制がみられた
same,blood pressure lowering effect (in words),[1]; during 6 weeks of administration,用量依存的に有意な降圧作用を示した
same,blood pressure (systolic),[2]; pre-value (week 0),124.5 ±5.5 mmHg
same,body weight,[2]; pre-value (week 0),94.0 ± 2.3 g
same,blood pressure (systolic),[2]; week 2,150.2 ±6.1 mmHg
same,body weight,[2]; week 2,148.8 ± 3.3 g
same,blood pressure (systolic),[2]; week 4,203.4 ±4.6 mmHg
same,body weight,[2]; week 4,198.2 ± 3.1 g
same,body weight,[2]; week 7,233.0 ± 3.8 g
same,blood pressure lowering effect (in words),"[2]; from week 2 on, versus control without test substance",有意な降圧効果が観察された
same,blood pressure (systolic),[3]; [12],115.0 ±4.7 mmHg
same,body weight,[3]; [12],107.7 ± 1.9 g
same,blood pressure (systolic),"[3]; FA 2.7% in feed, week 2",141.4 ±3.1 mmHg
same,body weight,"[3]; FA 2.7% in feed, week 2",137.6 ± 3.0 g
same,blood pressure (systolic),"[3]; FA 2.7% in feed, week 4",185.1± 1.9 mmHg
same,body weight,"[3]; FA 2.7% in feed, week 4",175.9 ± 3.2 g
same,blood pressure (systolic),"[3]; FA 2.7% in feed, week 6",203.1±7.5 mmHg
same,body weight,"[3]; FA 2.7% in feed, week 6",195.1 ± 5.0 g
same,blood pressure (systolic),"[3]; FA 2.7% in feed, week 8",207.8± 6.0 mmHg
same,body weight,"[3]; FA 2.7% in feed, week 8",213.5 ± 7.4 g
same,mean number of days from onset to death,[4]; n = 7,10.4 ± 0.6 days
same,mean number of days to death,[4]; n = 7,70.0 ± 1.8 days
same,mean number of days to onset of neurological symptoms,[4]; n = 7,59.6 ± 1.4 days
same,delay of neurological symptom onset and life prolongation (in words),[4]; versus control without test substance,明らかな神経症状発症遅延効果および延命効果を示している
same,blood pressure (systolic),[5]; [13],124.0 ±3.7 mmHg
same,body weight,[5]; [13],310.1 ± 7.3 g
same,blood pressure (systolic),[5]; [14],135.5 ± 2.8 mmHg
same,body weight,[5]; [14],349.2 ± 12.0 g
same,blood pressure (systolic),[5]; [15],99.5 ±3.1 mmHg
same,body weight,[5]; [15],122.2 ± 2.8 g
same,blood pressure (systolic),"[5]; WKY, FA 2.7% in feed, week 6",128.4 ±4.7 mmHg
same,body weight,"[5]; WKY, FA 2.7% in feed, week 6",263.2 ± 4.3 g
same,suppression of body weight (in words),"[5]; WKY, FA group",体重の有意な抑制がみられた
same,blood pressure lowering effect (in words),[5]; normotensive WKY rats,降圧作用を示さず
same,preventive effect (in words),"[6]; 8-week observation, versus control",明らかな予防効果が見られた
same,animals that died / animals used,[6]; [16],0/6
same,animals with onset of neurological symptoms / animals used,[6]; [16],0/6
same,mean number of days to death,[6]; [17],56.0 ± 0.0 days
same,mean number of days to onset of neurological symptoms,[6]; [17],56.0 ± 0.0 days
same,mean number of days to onset of neurological symptoms or death (in words),"[6]; from start of administration, versus control",有意に延長していた
same,protection of brain microvessels (in words),"[6]; order FA group, FA-Arg salt group",FA投与群、FA−Arg塩投与群の順で脳内微細血管が保護されたことが示唆された
"COc1cc(C=CC(=O)O)ccc1O [FA−Arg, フェルラ酸−L−アルギニン塩]",blood pressure (systolic),"[2]; pre-value (week 0), L−アルギニン塩",122.8 ±4.6 mmHg
same,body weight,"[2]; pre-value (week 0), L−アルギニン塩",103.2 ± 3.2 g
same,blood pressure (systolic),"[2]; week 2, L−アルギニン塩",155.2 ±4.6 mmHg
same,body weight,"[2]; week 2, L−アルギニン塩",156.7 ± 3.8 g
same,blood pressure (systolic),"[2]; week 4, L−アルギニン塩",196.1 ± 5.8 mmHg
same,body weight,"[2]; week 4, L−アルギニン塩",204.4 ± 4.5 g
same,body weight,"[2]; week 7, L−アルギニン塩",226.4 ± 10.9 g
same,deaths,"[3]; FA-Arg 1.8% in feed, at week 7",1 cases
same,deaths,"[3]; FA-Arg 1.8% in feed, at week 8",1 cases
same,blood pressure (systolic),[3]; [18],116.0 ±4.3 mmHg
same,body weight,[3]; [18],102.7 ± 2.9 g
same,blood pressure (systolic),"[3]; FA-Arg 1.8% in feed, week 2",146.4 ±5.0 mmHg
same,body weight,"[3]; FA-Arg 1.8% in feed, week 2",179.9 ± 4.0 g
same,blood pressure (systolic),"[3]; FA-Arg 1.8% in feed, week 4",183.6± 5.7 mmHg
same,body weight,"[3]; FA-Arg 1.8% in feed, week 4",225.7 ± 3.0 g
same,blood pressure (systolic),"[3]; FA-Arg 1.8% in feed, week 6",205.7±7.7 mmHg
same,body weight,"[3]; FA-Arg 1.8% in feed, week 6",244.3 ± 4.2 g
same,blood pressure (systolic),"[3]; FA-Arg 1.8% in feed, week 8",221.8± 7.1 mmHg
same,body weight,"[3]; FA-Arg 1.8% in feed, week 8",263.6 ± 6.9 g
same,mean number of days from onset to death,[4]; [19],8.2 ± 2.2 days
same,mean number of days to death,[4]; [19],73.9 ± 4.7 days
same,mean number of days to onset of neurological symptoms,[4]; [19],65.4 ± 4.8 days
same,animals that died / animals used,[6]; [20],2/7
same,animals with onset of neurological symptoms / animals used,[6]; [20],2/7
same,mean number of days to death,[6]; [21],55.0 ± 1.0 days
same,mean number of days to onset of neurological symptoms,[6]; [21],54.9 ± 1.1 days
